Laboratory results as given in PMC5142287, “Weight control interventions improve therapeutic efficacy of dacarbazine in melanoma by reversing obesity-induced drug resistance” (Cancer & Metabolism, 2016).

Assays:
[1] = Obesity-associated factors in B16F10-isografted HFD C57BL/6J mice (body weight, blood glucose, serum lipids, ELISA); format: in vivo; details: end of experiment, mean ± SD
Excerpt: C57BL/6J mice were procured from Experimental Animal Facility (EAF) at National Centre for Cell Science (NCCS), Pune, India. High fat diet (24% fat) was purchased from Provimi Animal Nutrition Pvt. Ltd., Bangalore, India, and normal diet (5% fat) was obtained from Amrut Laboratory, Pune, India. The compositions of diets are provided in supplementary data (Additional file 1: Table S1). Diet-induced obesity was developed in the mice by feeding them with high fat diet as described previously. Male C57BL/6J mice (6–8 weeks old) were divided into normal diet (ND) and high fat diet (HFD) group. ND group was fed with normal diet while HFD group was fed with high fat diet supplemented with ground nut and dried coconut for 6 months. Body weight and serum chemistry profile were measured monthly to verify obesity-associated changes. Water and food were provided ad libitum to all the mice. All animal experiments were carried out as per the requirement and guidelines of the Committee for the Purpose of Control and Supervision of Experiments on Animals (CPCSEA), Government of India, and after obtaining permission of the Institutional Animal Ethics Committee (IAEC).
(§1) Blood glucose levels and serum lipids were estimated as described previously. Insulin, leptin, and adiponectin levels in the serum were estimated by mouse-specific respective ELISA kits as described. Resistin, IL-6, and TNF-α levels in the serum were detected by indirect ELISA as described previously.
To study the impact of diet-induced obesity on the outcome of DTIC therapy in melanoma, we treated B16F10 melanoma isografted obese mice with DTIC purchased from Sigma, USA (80 mg/kg intraperitoneally for five consecutive days as described previously). In addition, to look into the impact of weight loss interventions on the outcome of DTIC therapy in obese mice, mice were administered with orlistat (an antiobesity drug known to inhibit gastrointestinal lipases) and/or shifted from high fat to normal diet followed by DTIC treatment. The detailed experimental plan is illustrated in Fig. 1a. Briefly, obese mice were administered orally with orlistat (10 mg/kg on every alternate day) purchased from Enzo Life Sciences, NY, USA, and/or shifted from high fat diet to normal diet. HFD C57BL/6J mice treated with vehicle or orlistat were termed as HFD-HFD Ctrl and HFD-HFD Orli (N = 11 per each group), respectively, whereas HFD C57BL/6J mice shifted to normal diet and treated with vehicle or orlistat were grouped as HFD-ND Ctrl and HFD-ND Orli (N = 11 per each group), respectively. After 15 days, these mice were injected subcutaneously (s.c.) with B16F10 cells (2 × 10^5) in 100 μl of PBS and monitored daily for the presence of palpable tumors and dimensions were recorded on alternate days. […] Tumor volume was calculated using the formula 0.52 × length × width^2 and was followed up throughout the study.

[2] = Obesity-associated factors in B16F10-isografted ND C57BL/6J mice; format: in vivo; details: end of experiment
Excerpt: as §1

[3] = test system: FASN, P-gp, Cav-1, pAkt, PCNA, and cyclin D1; test: Western blot of tumor lysates of B16F10-isografted mice; format: in vivo, C57BL/6J mice
Protocol: Melanoma tumor samples or cells were washed three to five times with ice-cold PBS and lysed in ice-cold RIPA lysis buffer as described previously. Briefly, the samples were centrifuged at 12000 RPM for 40 min and clear supernatants were stored at −80 °C. Protein concentrations were determined by Coomassie Plus Protein Assay Reagent (Thermo Scientific, IL, USA). Equal amounts of protein samples (50–100 μg) were resolved on 8–10% SDS-polyacrylamide gel and then transferred onto PVDF membrane (Millipore, MA, USA). […] After washing, the membranes were incubated with HRP-conjugated secondary antibodies (1:2000) and blots were developed using luminescence detection reagents (Santa Cruz Biotechnology, CA, USA).

[4] = test system: metastatic melanoma; parameters: method as in PMID 10840932; details: cited from earlier work
[5] = test system: B16F10 cells; test: MTT assay, B16F10 cells grown in medium with 5% serum of ND or HFD mice; details: for IC50: Mus musculus, cells grown 10 days, DTIC 48 h, MTT

With `CN(C)/N=N/c1[nH]cnc1C(N)=O` [DTIC, Dacarbazine] the Body weight ([1]; HFD-HFD (continued on HFD), orlistat 10 mg/kg oral alternate days, DTIC 80 mg/kg i.p. 5 days) was 32.28 ± 1.70 (p = 0.999) g, the Blood glucose ([1]; HFD-HFD) was 194.50 ± 6.98 (p = 0.9997) mg/dl and the “Serum IL-6” value ([1]; HFD-HFD) was 44.99 ± 1.58 (p = 0.9999) pg/ml. For the same molecule, the “Serum LDLc” value ([1]; HFD-HFD) was 85.01 ± 1.17 (p = 0.9999) mg/dl, the “Serum TG” value ([1]; HFD-HFD) was 84.17 ± 1.15 (p = 0.9999) mg/dl and the “Serum TNF-α” value ([1]; HFD-HFD) was 28.67 ± 0.99 (p = 0.9708) pg/ml. For the same molecule, the Serum adiponectin ([1]; HFD-HFD) was 3421 ± 198 (p = 0.9999) ng/ml, the Serum cholesterol ([1]; HFD-HFD) was 120.54 ± 4.49 (p = 0.9995) mg/dl and the “Serum free fatty acids” value ([1]; HFD-HFD) was 2.20 ± 0.04 (p = 0.9993) mM/l. The Serum insulin ([1]; HFD-HFD) was 0.385 ± 0.016 (p = 0.8701) μg/l, the Serum leptin ([1]; HFD-HFD) was 43.11 ± 1.65 (p = 0.9999) ng/ml and the Serum resistin ([1]; HFD-HFD) was 2.23 ± 0.11 (p = 0.9999) ng/ml. For the same molecule, the Blood glucose ([1]; HFD-ND) was 177.5 ± 5.05 (p = 0.0001) mg/dl, the “Serum IL-6” value ([1]; HFD-ND) was 35.59 ± 2.38 (p < 0.0001) pg/ml and the “Serum TG” value ([1]; HFD-ND) was 69.15 ± 2.41 (p < 0.0001) mg/dl. The “Serum TNF-α” value ([1]; HFD-ND) was 16.17 ± 1.91 (p < 0.0001) pg/ml, the Serum adiponectin ([1]; HFD-ND) was 5133 ± 228 (p < 0.0001) ng/ml and the “Serum free fatty acids” value ([1]; HFD-ND) was 1.81 ± 0.05 (p < 0.0001) mM/l. For the same molecule, the Serum insulin ([1]; HFD-ND) was 0.301 ± 0.02 (p < 0.0001) μg/l, the Serum leptin ([1]; HFD-ND) was 34.54 ± 2.3 (p < 0.0001) ng/ml and the Serum resistin ([1]; HFD-ND) was 1.82 ± 0.10 (p < 0.0001) ng/ml. The Blood glucose ([2]; mean) was 161.17 mg/dL, the “Serum IL-6” value ([2]; mean) was 20.19 pg/mL and the “Serum LDLc” value ([2]; mean) was 53.12 mg/dL. The “Serum TG” value ([2]; mean) was 55.40 mg/dL, the “Serum TNF-D” value ([2]; mean) was 12.35 pg/mL and the Serum adiponectin ([2]; mean) was 13873 ng/mL. The Serum cholesterol ([2]; mean) was 82.82 mg/dL, the “Serum free fatty acids” value ([2]; mean) was 0.90 mM/L and the Serum insulin ([2]; mean) was 0.114 µg/L. The Serum leptin ([2]; mean) was 15.74 ng/mL, the Serum resistin ([2]; mean) was 0.99 ng/mL and the Body weight ([2]; mean (SD on next line)) was 21.1 g. The “Level of P-gp in tumors” value ([3]; HFD mice) was “further increased”, the “Protein levels of cyclin D1 and PCNA in tumors” value ([3]; HFD mice) was “increase” and the “Cav-1 levels in tumors” value ([3]; HFD mice treated with DTIC) was “elevated”. The “FASN level in tumors” value ([3]; HFD mice treated with DTIC) was “further increased”, the “Level of P-gp in tumors” value ([3]; ND mice) was “reduced” and the “Protein levels of cyclin D1 and PCNA in tumors” value ([3]; ND mice) was “reduced levels”. The “FASN and Cav-1 level in tumors” value ([3]; ND mice treated with DTIC) was “much lower”, the Overall response rate [4] was 20–25% and the “Increase of IC50 in HFD serum vs ND serum” value ([5]; B16F10 cells) was ~ 5 fold. It also gave an IC50 ([5]; B16-F10, HFD serum (5%)) of 6.69 mM and an IC50 ([5]; B16-F10, ND serum (5%)) of 1.42 mM.
